# Measurements published in patent publication EP0906913A1, “Pteridinderivatives as NO synthase inhibitors” (Werner, Ernst, priority 1997, dated 1999).
# Experiments:
# [1] = target: T1, rekombinante, neuronale, Tetrahydrobiopterin-freie NO-Synthase (Rattus norvegicus, UniProt P29476); test: Inhibition of recombinant neuronal tetrahydrobiopterin-free NO synthase ([3H]citrulline formation from [3H]arginine); format: biochemical; settings: for NO-Synthase -Aktivität / inhibition at 0.01 µM / inhibition at 0.1 µM / inhibition at 1 µM / inhibition at 10 µM / inhibition at 100 µM / inhibition at 1000 µM: 10 µM Tetrahydrobiopterin, 10 min, 37°C; for inhibition at 0.01 µM / inhibition at 0.1 µM / inhibition at 1 µM / inhibition at 10 µM / inhibition at 100 µM / inhibition at 1000 µM: read-out: Hemmung
# T1 construct: made in house
# Procedure: Zum Nachweis der Wirkung der Hemmstoffe eignet sich z.B. rekombinante, neuronale, Tetrahydrobiopterin-freie NO-Synthase, welche nach der Methode von List et al. 1996 (Ref. 7) hergestellt wird. Die NO-Synthaseaktivität wird dabei in Abhängigkeit von der Zugabe des NO-Synthase-Hemmstoffes durch die Bildung von [2,3,4,5-^3H]Citrullin aus [2,3,4,5-^3H]Arginin nach der Methode von Mayer et al. (Ref. 8) bestimmt. Dazu wird in 0.1 ml folgendes Gemisch für 10 min bei 37°C inkubiert: 0.1 µg NO-Synthase, 0.1mM [2,3,4,5-^3H]-L-Arginin (ca. 60000 cpm), 0.5 mM CaCl2, 10 µg/ml Calmodulin, 0.2 mM NADPH (Nicotinamidadenindinukleotid, reduzierte Form), 10 µM Tetrahydrobiopterin, 0-1000 µM NO-Synthase-Inhibitor (z.B. H2aminobiopterin), 5 µM FAD (Flavinadenindinucleutid), 5 µM FMN (Flavinmononucleotid), und 0.2 mM CHAPS (3-[(3-cholamidopropyl)dimethyl-amonio]-1-propansulfonat). Die Reaktion wird durch Zugabe von 0.9 ml 20 mM Natriumacetatpuffer, pH = 5,5, der 1 mM L-Citrullin enthält, gestoppt. Das Gemisch wird anschließend auf Ionenaustauschersäulen, die mit dem Material DOWEX AG50W-X8 gefüllt sind, aufgetragen, und das Eluat sowie die Waschflüssigkeit (1 ml Wasser) werden aufgefangen. 7 ml Scintillationscocktail werden zugegeben und die Radioaktivität, die ein Maß für die NO-Synthaseaktivität ist, wird mit einem Szintillationszähler bestimmt. Tabelle I
# [2] = test system: kultivierten, cytokin-stimulierten Mausfibroblasten; test: Nitrite in supernatant of cultured cytokine-stimulated mouse fibroblasts (Griess reaction); format: cell-based, Maus; settings: for inhibition at 2.5 µM / inhibition at 10 µM / inhibition at 25 µM / inhibition at 100 µM / inhibition at 250 µM: Fibroblast, read-out: Hemmung; for inhibition at 2.5 µM / inhibition at 10 µM / inhibition at 25 µM / inhibition at 100 µM / inhibition at 250 µM / Nitrit im Überstand: 96 h, Interferon-gamma, TNF-alpha, LPS stimulated
# Procedure: Zum Nachweis der Wirksamkeit einer Verbindung der vorliegenden Erfindung an kultivierten Zellen wurden Mausfibroblasten nach Werner-Felmayer et al., (Ref. 9) gewonnen und in RPMI 1640 Medium (Schoeller Pharma, Wien, Österreich) mit 20% Hitze-inaktiviertem fötalem Kälberserum (Schoeller Pharma) in einer Dichte von 10^5 Zellen pro ml ausgesät und mit 50 U/ml Mäuse-Interferongamma, 100 U/ml Tumornekrose Faktor-Alpha und 1 µg/ml Lipopolysaccharid (E. coli B55:05) in Gegenwart verschiedener Konzentrationen von Hemmstoffen kultiviert. Nach 96 h im Brutschrank (100% Luftfeuchtigkeit, 37°C, 5% CO2) werden die Überstände gesammelt und mit der Griess-Reaktion auf ihren Gehalt an Nitrit, einem Abbauprodukt von NO, analysiert. Die folgende Tabelle 2 zeigt einen Vergleich von H2aminobiopterin (R1 = R3 = H, R2 = R4 = OH, R5 = CH3), H4aminobiopterin und Beispiel 72 aus DE 4418097: Tabelle 2
NO-Synthase -Aktivität ([1]; inhibitor 0.01 µM) [nmol/mg/min],inhibition at 0.01 µM ([1]; inhibitor 0.01 µM) [%],NO-Synthase -Aktivität ([1]; inhibitor 0.1 µM) [nmol/mg/min],inhibition at 0.1 µM ([1]; inhibitor 0.1 µM) [%],NO-Synthase -Aktivität ([1]; inhibitor 1.0 µM) [nmol/mg/min],inhibition at 1 µM ([1]; inhibitor 1.0 µM) [%],NO-Synthase -Aktivität ([1]; inhibitor 10. µM) [nmol/mg/min],inhibition at 10 µM ([1]; inhibitor 10. µM) [%],NO-Synthase -Aktivität ([1]; inhibitor 100. µM) [nmol/mg/min],inhibition at 100 µM ([1]; inhibitor 100. µM) [%],NO-Synthase -Aktivität ([1]; inhibitor 1000. µM) [nmol/mg/min],inhibition at 1000 µM ([1]; inhibitor 1000. µM) [%],SMILES,inhibition at 2.5 µM ([2]; inhibitor 2.5 µM) [%],inhibition at 10 µM ([2]; inhibitor 10 µM) [%],inhibition at 25 µM ([2]; inhibitor 25 µM) [%],inhibition at 100 µM ([2]; inhibitor 100 µM) [%],inhibition at 250 µM ([2]; inhibitor 250 µM) [%],Nitrit im Überstand ([2]; inhibitor 2.5 µM) [µM],Nitrit im Überstand ([2]; inhibitor 10 µM) [µM],Nitrit im Überstand ([2]; inhibitor 25 µM) [µM],other results
279,6,262,12,181,39,72,76,35,88,24,92,"C[C@H](O)[C@H](O)[C@H]1CNc2nc(N)nc(N)c2N1 [H4aminobiopterin, 2,4-Diamino-5,6,7,8-tetrahydro-6R-(L-erythro-1,2 dihydroxypropyl)pteridin, reference compound]",7,36,62,96,99,9.3,6.4,3.8,Nitrit im Überstand ([2]; inhibitor 100 µM): 0.4 µM; Nitrit im Überstand ([2]; inhibitor 250 µM): 0.02 µM
294,0.3,283,4,242,18,110,64,48,83,25,92,"C[C@H](O)[C@H](O)C1=Nc2c(N)nc(N)nc2NC1 [H2aminobiopterin, 2,4-diamino-7,8-dihydro-6(L-erythro-1,2-dihydroxylpropyl) pteridin]",35,78,99,100,100,6.2,2.1,0.1,"Hemmung des Enzyms (Vergleich) ([1]; in words, compared with 6R-H4aminobiopterin): in der gleichen Größenordnung; Wirksamkeit am Enzym (Vergleich) ([1]; in words, compared with Beispiel 72 of DE 4418097): wesentlich wirksamer; Wirksamkeit an kultivierten Zellen (Vergleich) ([2]; in words, compared with previously known pteridine derivatives): deutlich wirksamer; Nitrit im Überstand ([2]; inhibitor 100 µM): 0.0 µM; Nitrit im Überstand ([2]; inhibitor 250 µM): 0.0 µM"
